This note sets out measurements from ChEMBL document CHEMBL1147100, “Metronidazole plus rifampin sterilizes long-term dormant Mycobacterium tuberculosis” (Antimicrob Agents Chemother, 2007).

Format in all cases: functional, organism-based
Test [1] has as its system Mycobacterium tuberculosis. The test is described as follows: Bactericidal activity against 5-day old actively replicating Mycobacterium tuberculosis H37Rv in aerobic condition at 1 ug/ml after 4 days by Wayne dormancy culture model.
The subject of test [2] is Mycobacterium tuberculosis. The test is described as follows: Bactericidal activity against 26-day old non-replicating Mycobacterium tuberculosis H37Rv at 1 ug/ml after 1 day by Wayne in anaerobic condition dormancy culture model.
The test system of test [3] is Mycobacterium tuberculosis. The experiment in a line: Bactericidal activity against 19-day old non-replicating Mycobacterium tuberculosis H37Rv in anaerobic condition at 1 ug/ml after 11 days by Wayne dormancy culture model.
In test [4] the test system is Mycobacterium tuberculosis. The experiment in a line: Bactericidal activity against 19-day old non-replicating Mycobacterium tuberculosis H37Rv in anaerobic condition at 1 ug/ml after 1 day by Wayne dormancy culture model.
Test [5] deals with Mycobacterium tuberculosis. The experiment in a line: Bactericidal activity against 12-day old non-replicating Mycobacterium tuberculosis H37Rv in anaerobic condition at 1 ug/ml after 1 day by Wayne dormancy culture model.
The test system of test [6] is Mycobacterium tuberculosis. The test is described as follows: Bactericidal activity against 5-day old actively replicating Mycobacterium tuberculosis H37Rv in aerobic condition at 1 ug/ml after 1 day by Wayne dormancy culture model.
In test [7] the test system is Mycobacterium tuberculosis. The test is described as follows: Bactericidal activity against 5-day old actively replicating Mycobacterium tuberculosis H37Rv in aerobic condition at 1 ug/ml after 11 days by Wayne dormancy culture model.
The test system of test [8] is Mycobacterium tuberculosis. The test is described as follows: Bactericidal activity against 26-day old non-replicating Mycobacterium tuberculosis H37Rv in anaerobic condition at 1 ug/ml after 11 days by Wayne dormancy culture model.
In test [9] the test system is Mycobacterium tuberculosis. The test is described as follows: Bactericidal activity against 12-day old non-replicating Mycobacterium tuberculosis H37Rv in anaerobic condition at 1 ug/ml after 11 days by Wayne dormancy culture model.
Test [10] has as its system Mycobacterium tuberculosis. The test is described as follows: Bactericidal activity against 19-day old non-replicating Mycobacterium tuberculosis H37Rv in anaerobic condition at 1 ug/ml after 4 days by Wayne dormancy culture model.
In test [11] the test system is Mycobacterium tuberculosis. The test is described as follows: Bactericidal activity against 26-day old non-replicating Mycobacterium tuberculosis H37Rv in anaerobic condition at 1 ug/ml after 4 days by Wayne dormancy culture model.
In test [12] the test system is Mycobacterium tuberculosis. The test is described as follows: Bactericidal activity against 12-day old non-replicating Mycobacterium tuberculosis H37Rv in anaerobic condition at 1 ug/ml after 4 days by Wayne dormancy culture model.
In test [13] the test system is Mycobacterium tuberculosis. The test is described as follows: Bactericidal activity against 26-day old non-replicating Mycobacterium tuberculosis H37Rv in anaerobic condition at 8 ug/ml after 4 days by Wayne dormancy culture model.
Test [14] concerns Mycobacterium tuberculosis. The test is described as follows: Bactericidal activity against 26-day old non-replicating Mycobacterium tuberculosis H37Rv in anaerobic condition at 8 ug/ml after 11 days by Wayne dormancy culture model.
Test [15] concerns Mycobacterium tuberculosis. The test is described as follows: Bactericidal activity against 5-day old actively replicating Mycobacterium tuberculosis H37Rv in aerobic condition at 8 ug/ml by Wayne dormancy culture model.
Test [16] deals with Mycobacterium tuberculosis. The experiment in a line: Bactericidal activity against 12-day old non-replicating Mycobacterium tuberculosis H37Rv in anaerobic condition at 8 ug/ml after 4 days by Wayne dormancy culture model.
Test [17] relates to Mycobacterium tuberculosis. The experiment in a line: Bactericidal activity against 26-day old non-replicating Mycobacterium tuberculosis H37Rv in anaerobic condition at 8 ug/ml after 1 day by Wayne dormancy culture model.
In test [18] the test system is Mycobacterium tuberculosis. The test is described as follows: Bactericidal activity against 12-day old non-replicating Mycobacterium tuberculosis H37Rv in anaerobic condition at 8 ug/ml after 1 day by Wayne dormancy culture model.
The test system of test [19] is Mycobacterium tuberculosis. The test is described as follows: Bactericidal activity against 19-day old non-replicating Mycobacterium tuberculosis H37Rv in anaerobic condition at 8 ug/ml after 1 day by Wayne dormancy culture model.
The test system of test [20] is Mycobacterium tuberculosis. The test is described as follows: Bactericidal activity against 19-day old non-replicating Mycobacterium tuberculosis H37Rv in anaerobic condition at 8 ug/ml after 4 days by Wayne dormancy culture model.
In test [21] the test system is Mycobacterium tuberculosis. The test is described as follows: Bactericidal activity against 12-day old non-replicating Mycobacterium tuberculosis H37Rv in anaerobic condition at 8 ug/ml after 11 days by Wayne dormancy culture model.
Test [22] relates to Mycobacterium tuberculosis. The test is described as follows: Bactericidal activity against 19-day old non-replicating Mycobacterium tuberculosis H37Rv in anaerobic condition at 8 ug/ml after 11 days by Wayne dormancy culture model.

The structures appear in SMILES notation. Activity calls are given as the source filed them. The rule behind the calls is not given here.

As to `CO[C@H]1/C=C/O[C@@]2(C)Oc3c(C)c(O)c4c(O)c(c(/C=N/N5CCN(C)CC5)c(O)c4c3C2=O)NC(=O)/C(C)=C\C=C\[C@H](C)[C@H](O)[C@@H](C)[C@@H](O)[C@@H](C)[C@H](OC(C)=O)[C@@H]1C`, the result in test [1], in test [2], in test [3], in test [4], in [5] and in test [6] was Active. In addition, the outcome in test [7], in test [8], in test [9], in [10], in test [11] and in [12] was Active.
Regarding `Cc1ncc([N+](=O)[O-])n1CCO`, the outcome in [13], in test [14], in test [16], in test [17], in test [18] and in test [19] was Active. For the same compound, the outcome in [20], in [21] and in test [22] was Active. The result in test [15] was inactive.
